Laboratory results taken from article PMC4791539, “Crystal structure of Anoxybacillus α-amylase provides insights into maltose binding of a new glycosyl hydrolase subclass” (Scientific Reports, 2016).

Biological target: T1, TASKA (truncated ASKA) (Anoxybacillus ayderensis, UniProt I1VWH9)
T1 construct: signal peptide (1-23) and predicted C-terminal transmembrane region (479-505) removed; 6xHis tags at N- and C-termini (pET-28a); E. coli BL21(DE3); monomer in asymmetric unit
T1 sequence (I1VWH9 24-478): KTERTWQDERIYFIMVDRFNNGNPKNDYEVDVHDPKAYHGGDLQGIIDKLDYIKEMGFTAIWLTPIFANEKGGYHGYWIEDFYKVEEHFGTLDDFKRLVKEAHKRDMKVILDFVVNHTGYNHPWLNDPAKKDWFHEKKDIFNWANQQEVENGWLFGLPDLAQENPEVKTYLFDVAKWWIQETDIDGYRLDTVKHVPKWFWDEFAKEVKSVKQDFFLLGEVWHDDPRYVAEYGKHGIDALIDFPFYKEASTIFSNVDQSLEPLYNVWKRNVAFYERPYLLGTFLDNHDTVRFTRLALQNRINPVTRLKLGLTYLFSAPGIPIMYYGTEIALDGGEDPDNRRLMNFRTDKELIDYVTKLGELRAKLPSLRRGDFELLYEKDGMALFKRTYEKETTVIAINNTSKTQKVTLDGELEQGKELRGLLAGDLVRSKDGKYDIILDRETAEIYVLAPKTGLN
Assay: UPLC-ELSD product analysis
Format: biochemical
Settings: hydrolysed to glucose and maltose; co-crystal (TASKA-T) shows only maltose

## OC[C@H]1O[C@H](O[C@H]2[C@H](O)[C@@H](O)[C@@H](O[C@H]3[C@H](O)[C@@H](O)C(O)O[C@@H]3CO)O[C@@H]2CO)[C@H](O)[C@@H](O)[C@@H]1O (stereo partly shown) [maltotriose]
  UPLC-ELSD product analysis: glucose and maltose were produced following the hydrolysis of maltotriose
